In the Biogen ADME set (Fang et al. 2023):
Values after ≈ are worked out from the molar mass of the structure shown.

Settings: for aqueous solubility: pH 6.8

SMILES | MDR1-MDCK efflux ratio | intrinsic clearance, human liver microsomes | intrinsic clearance, rat liver microsomes | aqueous solubility | fraction unbound, human plasma
CS(=O)(=O)NC1CCN(C(=O)NCCc2ccc(F)cc2)CC1 | 35.3 | ≤ 4.74 mL/min/kg | 61.4 mL/min/kg | 67.9 µg/mL (≈ 198 µM) | –
O=C(Nc1ccccc1)c1sc(N2CCOCC2)nc1-c1ccccc1 | 0.494 | – | – | 0.26 µg/mL (≈ 0.711 µM) | –
Cc1cnn(C2CN(CC3(O)CCCCC3)C2)c1 | 0.488 | 54.7 mL/min/kg | 1900 mL/min/kg | 32.6 µg/mL (≈ 131 µM) | –
COc1cc2c(cc1OC)CN(C(=O)C1CCCN(S(=O)(=O)c3ccc(F)cc3)C1)CC2 (stereo not given) | 5.4 | 150 mL/min/kg | 1220 mL/min/kg | 7.05 µg/mL (≈ 15.2 µM) | –
N#CCc1ccc(OCc2ccncc2)cc1 | – | 53.3 mL/min/kg | 373 mL/min/kg | – | –
CCOc1ccccc1NC(=O)C(=O)NCc1ccccc1F | – | – | – | 0.34 µg/mL (≈ 1.07 µM) | –
CC(C)N(C[C@@H]1O[C@@H](n2cnc3c(N)ncnc32)[C@H](O)[C@H]1O)[C@H]1C[C@@H](CCc2nc3cc(C(C)(C)C)ccc3[nH]2)C1 | 3.45 | 146 mL/min/kg | 835 mL/min/kg | – | –
O=C(O)c1ccc(N2CCCC2)c(F)c1 | 0.865 | ≤ 4.74 mL/min/kg | 14.4 mL/min/kg | 27.3 µg/mL (≈ 130 µM) | –
Clc1cccc(Nc2ncnc3[nH]ncc23)c1Cl | – | – | – | 3.23 µg/mL (≈ 11.5 µM) | –
COc1cc(CN2CCCNCC2)cc2c1OCO2 | 8.38 | 5.17 mL/min/kg | 72.9 mL/min/kg | – | –
CN(C)S(=O)(=O)Nc1ccc2sncc2c1 | – | – | – | 53.6 µg/mL (≈ 208 µM) | –
Cc1ccc(S(=O)(=O)Nc2ccccc2-c2nc3ccccc3[nH]2)cc1 | – | 122 mL/min/kg | 541 mL/min/kg | – | –
CCOc1ccc(C(=O)Cn2c(=O)n(-c3ccc(F)cc3)c3nc(C)nc(C(N)=O)c32)cc1 | 0.926 | – | – | 0.39 µg/mL (≈ 0.868 µM) | –
c1ccc2nc(NCCn3ccnc3)cnc2c1 | 3.5 | 8.75 mL/min/kg | 441 mL/min/kg | – | –
Cc1cccc2cc(C(=O)NCCCn3nnc4ccccc43)n(C)c12 | 0.886 | 325 mL/min/kg | 1410 mL/min/kg | – | –
Cc1noc(-c2ccc(NC(=O)Cc3ccccc3)cc2)n1 | 0.573 | 7.82 mL/min/kg | 57.1 mL/min/kg | 7.94 µg/mL (≈ 27.1 µM) | –
CCn1cc(C2CCN(Cc3ccc(C#N)cc3)CC2)cn1 | 0.45 | 12.2 mL/min/kg | 188 mL/min/kg | 43 µg/mL (≈ 146 µM) | –
CC(C)N(C)S(=O)(=O)NCCCc1nc2cc(Cl)ccc2[nH]1 | 16.7 | 134 mL/min/kg | 2500 mL/min/kg | – | –
Cc1ccc(CN(C)Cc2c(C)noc2C)o1 | – | 27.6 mL/min/kg | 1270 mL/min/kg | 31.6 µg/mL (≈ 135 µM) | –
CCN1CCN(C(=O)CNc2ncnc3onc(C)c23)CC1 | 3.68 | ≤ 4.74 mL/min/kg | ≤ 10.7 mL/min/kg | – | –
Cc1nc(-c2ccccc2)ccc1C(=O)NC1CCCC1 | – | ≤ 4.74 mL/min/kg | 319 mL/min/kg | 41 µg/mL (≈ 146 µM) | –

SMILES | MDR1-MDCK efflux ratio | intrinsic clearance, human liver microsomes | intrinsic clearance, rat liver microsomes | aqueous solubility | fraction unbound, human plasma
O=C(c1ccc(O)cc1)N1CCN(c2ncnc3c2CCC3)CC1 | 43.2 | 12.1 mL/min/kg | 178 mL/min/kg | – | –
Cc1ccccc1C(=O)Nc1nc(C)c(C)s1 | 0.557 | 90 mL/min/kg | 280 mL/min/kg | 30.4 µg/mL (≈ 123 µM) | –
CC(Oc1ccc(Cl)cc1)C(=O)N1CCC(n2c(=O)[nH]c3ccccc32)CC1 (stereo not given) | – | 36.2 mL/min/kg | 525 mL/min/kg | 28.9 µg/mL (≈ 72.4 µM) | –
Cc1ccc(NC(=O)Cc2c[nH]c3ccccc23)cc1 | – | – | – | 5.6 µg/mL (≈ 21.2 µM) | –
CC1CCC(NC(=O)c2oc3ccccc3c2CS(C)=O)CC1 (stereo not given) | 2.52 | 15.2 mL/min/kg | 154 mL/min/kg | 68.8 µg/mL (≈ 206 µM) | –
CS(=O)(=O)Nc1ccccc1-c1ccncc1 | 1.27 | ≤ 4.74 mL/min/kg | 100 mL/min/kg | – | –
Clc1ccc(C2(c3ccc(-c4cn[nH]c4)cc3)CCNCC2)cc1 | 99 | ≤ 4.74 mL/min/kg | ≤ 10.7 mL/min/kg | 18.5 µg/mL (≈ 54.8 µM) | –
COc1ccc2nc(NCc3cnn(C)c3)ccc2c1 | 0.532 | 28.5 mL/min/kg | 88.6 mL/min/kg | 34.8 µg/mL (≈ 130 µM) | –
CCCc1noc(CN2CCN(c3ccccc3OC)CC2)n1 | 0.743 | 27 mL/min/kg | 351 mL/min/kg | – | –
Fc1cncc(-c2cnc(NCc3ccc(Cl)c(F)c3)nc2)c1 | 0.339 | 14.9 mL/min/kg | 104 mL/min/kg | 3.2 µg/mL (≈ 9.62 µM) | –
CC1CCN(Cc2ccc(NC(=O)c3ccccn3)cc2)CC1 | 0.675 | ≤ 4.74 mL/min/kg | 16.2 mL/min/kg | 40.8 µg/mL (≈ 132 µM) | –
C=CC(=O)Nc1cccc(Sc2nc(Nc3ccc(N4CCN(C)CC4)cc3)ncc2Cl)c1 | – | – | – | 0.4 µg/mL (≈ 0.832 µM) | –
Cc1ncccc1CNc1ccc(CC#N)cc1 | 0.534 | 18.2 mL/min/kg | 364 mL/min/kg | – | –
Nc1nn(C(=O)Cc2ccc(F)cc2)c2cccc(F)c12 | – | 16.7 mL/min/kg | 62.9 mL/min/kg | – | –
COC(=O)[C@@H]1Cc2ncn(Cc3ccccc3)c2CN1C(C)=O | 17.6 | 6.26 mL/min/kg | 97.3 mL/min/kg | 32.2 µg/mL (≈ 103 µM) | –
CC(C)C(=O)N1CC(Cc2nccc3ccn(C)c23)C1 | 7.28 | ≤ 4.74 mL/min/kg | 51.9 mL/min/kg | 62.7 µg/mL (≈ 231 µM) | –
O=C(NCCc1ccccc1)c1ccc(NC(=O)N2CCCCc3ccccc32)cc1 | 2.11 | 256 mL/min/kg | – | – | 0.0119
Cn1nccc1C(=O)C1CCN(C(=O)c2cc(C(C)(C)C)nn2C)CC1 | – | ≤ 4.74 mL/min/kg | 97.9 mL/min/kg | – | –
O=c1c(-n2ccnn2)c[nH]n1-c1cc(N2CCOCC2)ncn1 | 1.76 | ≤ 4.74 mL/min/kg | 45.8 mL/min/kg | 30.7 µg/mL (≈ 97.7 µM) | –
Cc1ccc(=O)n(CC2(O)CCN(Cc3ccc4ccccc4n3)CC2)n1 | – | ≤ 4.74 mL/min/kg | 90.1 mL/min/kg | – | –
N#Cc1ccccc1OCc1csc(-c2ncccn2)n1 | 0.59 | 31.1 mL/min/kg | 119 mL/min/kg | 12.7 µg/mL (≈ 43.1 µM) | –

SMILES | MDR1-MDCK efflux ratio | intrinsic clearance, human liver microsomes | intrinsic clearance, rat liver microsomes | aqueous solubility | fraction unbound, human plasma
O=C(CCCc1nnc(-c2ccccc2)o1)Nc1cccc2ccccc12 | 0.976 | 71.6 mL/min/kg | 1150 mL/min/kg | 1.31 µg/mL (≈ 3.67 µM) | –
O=C(C1CCCN(c2ccc(Cl)nn2)C1)N1CCc2ccccc2C1 (stereo not given) | – | 125 mL/min/kg | 1650 mL/min/kg | 49.8 µg/mL (≈ 139 µM) | –
CCCNC(=O)Nc1ccc(Oc2ncnc3cc(OC)c(OC)cc23)cc1Cl | 6.08 | – | – | 0.22 µg/mL (≈ 0.528 µM) | –
O=c1c2ccncc2ncn1[C@H]1CCN(Cc2ccccc2)C1 | 0.442 | 22.6 mL/min/kg | 796 mL/min/kg | – | –
CCn1ncc(-c2cc(C(F)F)nc(NCCCOC)n2)c1C | 0.525 | 43.6 mL/min/kg | 412 mL/min/kg | 44.7 µg/mL (≈ 137 µM) | –
Cc1cccc2cc(C(=O)NCCSc3nccn3C)n(C)c12 | – | 180 mL/min/kg | 727 mL/min/kg | 33.5 µg/mL (≈ 102 µM) | –
CNC(=O)c1ccc2c(c1)NC(=O)/C2=C(\Nc1cccc(CN(C)C)c1)c1ccccc1 | – | – | – | 8.39 µg/mL (≈ 19.7 µM) | –
N#Cc1ccsc1NC(=O)c1ccccn1 | – | – | – | 5.91 µg/mL (≈ 25.8 µM) | –
CCN(C(=O)CN1CCNC(=O)C1)c1ccc(F)cc1 | 49.4 | ≤ 4.74 mL/min/kg | ≤ 10.7 mL/min/kg | 34.8 µg/mL (≈ 125 µM) | –
Cn1nc(N)c2ccc(Br)cc21 | 0.72 | 24 mL/min/kg | 94.8 mL/min/kg | – | –
O=C(CCC1CCOCC1)Nc1ccc(C(=O)O)cc1 | – | ≤ 4.74 mL/min/kg | ≤ 10.7 mL/min/kg | – | –
Cn1ncc2c1CCc1sc(NC(=O)c3cccnc3)nc1-2 | 1.58 | 16.6 mL/min/kg | 89.2 mL/min/kg | 10.8 µg/mL (≈ 34.7 µM) | –
CCc1[nH]nc(NC2CCN(C(C)C)CC2)c1C | 13.7 | ≤ 4.74 mL/min/kg | 163 mL/min/kg | – | –
CN(Cc1c(F)cccc1Cl)C(=O)C1(C#N)CCCC1 | – | 111 mL/min/kg | 1250 mL/min/kg | 35.2 µg/mL (≈ 120 µM) | –
CC(C)(C)NC(=O)Cn1nc(C(c2ccccc2)c2ccccc2)oc1=O | 4.07 | 22.4 mL/min/kg | 747 mL/min/kg | 6.02 µg/mL (≈ 16.5 µM) | –
O=C(c1n[nH]c2c1COCC2)N1CCC2(C=Cc3ccccc32)CC1 | 1.5 | 4.85 mL/min/kg | 870 mL/min/kg | – | –
O=S(=O)(c1cn[nH]c1)N1CCCC(c2cccc(-c3cccc(Cl)c3)n2)C1 (stereo not given) | 3 | 52.6 mL/min/kg | 394 mL/min/kg | 1.45 µg/mL (≈ 3.6 µM) | –
Cc1nnc(CN(C)Cc2cnn(C)c2C)s1 | 1.44 | ≤ 4.74 mL/min/kg | 20 mL/min/kg | – | –
NC(=O)C1(CCCc2ccccn2)CCNCC1 | – | ≤ 4.74 mL/min/kg | 84.3 mL/min/kg | 38.7 µg/mL (≈ 156 µM) | –
CCc1nc(C)cc(N2CCCC3(CCNCC3)CC2)n1 | 32.4 | ≤ 4.74 mL/min/kg | ≤ 10.7 mL/min/kg | – | –
